In article PMC3133487 (Journal of Antimicrobial Chemotherapy, 2011):
Converted amounts (≈) assume the structure as drawn. “And” between values parts separate entries of the source, which are not always exact repeats. Equal entries are not always repeated.

Assays:
[1] = biological target: T1, M. tuberculosis MurE (Mycobacterium tuberculosis, UniProt P9WJL3); test: MurE ligase inhibition, HPLC quantification of UDP-MurNAc-tripeptide; type: biochemical
T1 sequence (P9WJL3 1-535): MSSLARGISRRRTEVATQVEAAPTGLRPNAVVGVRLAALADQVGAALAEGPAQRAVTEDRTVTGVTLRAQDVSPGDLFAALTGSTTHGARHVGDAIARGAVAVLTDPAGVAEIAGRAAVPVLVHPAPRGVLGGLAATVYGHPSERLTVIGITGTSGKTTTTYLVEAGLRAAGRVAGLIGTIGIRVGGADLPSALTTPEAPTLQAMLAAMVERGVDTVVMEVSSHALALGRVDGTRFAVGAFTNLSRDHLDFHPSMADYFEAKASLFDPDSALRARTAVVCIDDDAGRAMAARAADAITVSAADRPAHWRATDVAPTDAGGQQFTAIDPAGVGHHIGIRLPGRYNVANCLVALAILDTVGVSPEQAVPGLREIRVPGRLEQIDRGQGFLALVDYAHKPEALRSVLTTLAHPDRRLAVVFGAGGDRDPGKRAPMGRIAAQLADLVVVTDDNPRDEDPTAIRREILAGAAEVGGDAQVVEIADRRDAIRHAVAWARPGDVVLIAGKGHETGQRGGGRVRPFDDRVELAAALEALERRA

[2] = biological target: T1, M. tuberculosis MurE; test: MurE ligase inhibition, phosphate colorimetric detection method; type: biochemical
[3] = tested on: M. fortuitum; test: Microdilution MIC assay in cation-adjusted Mueller–Hinton broth; type: cell-based, Mycobacterium fortuitum; settings: Mycolicibacterium fortuitum, read-out: MIC M. fortuitum
[4] = tested on: RAW264.7 macrophages; settings: RAW264.7, 48 h, ±SD
[5] = tested on: M. smegmatis mc^2155; test: microbe, parasite or virus in culture; type: cell-based, Mycobacterium smegmatis; settings: Mycolicibacterium smegmatis, MC^2155, 72 h, read-out: MIC M. smegmatis mc^2155
[6] = tested on: M. phlei; test: Microdilution MIC assay in cation-adjusted Mueller–Hinton broth; type: cell-based, Mycobacterium phlei; settings: Mycolicibacterium phlei, read-out: MIC M. phlei
[7] = tested on: EMRSA-15; test: Microdilution MIC assay in Mueller–Hinton broth; type: cell-based; settings: Staphylococcus aureus, read-out: MIC S. aureus EMRSA-15
[8] = tested on: EMRSA-16; test: Microdilution MIC assay in Mueller–Hinton broth; type: cell-based; settings: Staphylococcus aureus, read-out: MIC S. aureus EMRSA-16

For `NNC(=O)c1ccncc1` [Isoniazid], the IC50 [1] was > 1000 µM, the IC50 [2] was > 1000 µM and the MIC [3] was 1 µg/mL and 3.65 µM. The “Murine macrophages GIC50 (50% growth inhibition concentration)” value [4] was >500 mg/L, the MIC [5] was 5 µg/mL and 18.5 µM and the MIC [6] was 4 µg/mL and 15 µM.
In the case of `CCn1cc(C(=O)O)c(=O)c2cc(F)c(N3CCNCC3)cc21` [norfloxacin], the MIC [7] is reported as 0.5 µg/mL (≈ 1.57 µM) and the MIC [8] is reported as 256 µg/mL (≈ 802 µM).
